The results in this text go back to paper PMC9456400 (International Journal of Molecular Sciences, 2022).

One assay relates to Huh-7 cells. The assay can be described thus: MTT cell viability assay. In kind it is cell-based. The note with it: Homo sapiens; Huh-7, MTT. In general terms: Tetrazolium dyes change colour on reduction, which living cells bring about.
In another assay the test system is HepG2 cells. Kind of assay: Oil Red O staining of neutral lipids. It counts as cell-based, human. The settings on record: HepG2, acute exposure 48 h; silibinin 100 μmol/L as co-treatment with lorlatinib. As to the method: To confirm these findings, we employed an independent in vitro model of fatty liver disease involving non-tumorigenic HepG2 cells, which are routinely employed as an inducible fatty liver cell model to screen for therapeutic drugs to eliminate lipid accumulation.
For assessment of neutral lipid formation, cells were washed in PBS, fixed with 4% paraformaldehyde for 30 min, washed in distilled water, and then briefly incubated in 60% isopropanol. Following equilibration, cells were stained with a working solution (60%) of Oil Red O for 20 min. An Oil Red O stock solution was prepared by dissolving 0.35% w/v Oil Red O in 100 mL 100% isopropanol. HCS LipidTOX™ Green Neutral Lipid Stain (Invitrogen; Cat. #H34475) was employed as a second staining cocktail for visualization of intracellular neutral lipids. Formaldehyde fixation and preparing/using the labeling solution was carried out as per the manufacturer’s instructions.

Description for Huh-7 cells: Cell viability effects of lorlatinib were determined using the colorimetric MTT (3-4,5-dimethylthiazol-2-yl-2,5-diphenyl-tetrazolium bromide) reduction assay. Dose–response curves to graded concentrations of lorlatinib were plotted as a percentage of the control cell absorbance, which was obtained from control cells containing the vehicle (DMSO v/v) processed simultaneously. For each treatment, cell viability was evaluated using the following equation: (OD570 of the treated sample/OD570 of the untreated sample) × 100.

On to `C[C@H]1Oc2cc(cnc2N)-c2c(nn(C)c2C#N)CN(C)C(=O)c2ccc(F)cc21` [lorlatinib, (10R)-7-amino-12-fluoro-2,10,16-trimethyl-15-oxo-10,15,16,17-tetrahydro-2H-8,4-(metheno)pyrazolo [4,3-h][2,5,11]-benzoxadiazacyclotetradecine-3-carbonitrile], for which the concentration for half-maximal inhibition (IC50) (in general, the concentration at which inhibition is half-maximal) in the assay with Huh-7 cells was 22 ± 5 µM. Besides, the “Accumulation of neutral lipids (lipid droplets)” value in the assay on HepG2 cells was “greater number of larger lipid droplets than untreated cells”.
